Test results reported in patent US9139577B2, “Sulfoximine substituted quinazolines for pharmaceutical compositions” (Boehringer Ingelheim International GmbH, priority 2013, dated 2015).
pIC50: −log10 of the molar value.

Assays:
MNK2a = MNK2a (Homo sapiens (Human), UniProt Q9HBH9); assay: MNK2a in vitro kinase assay (Assay 2), ADP-Glo; assay type: biochemical; conditions: read-out: MNK2 IC50
MNK1 = MNK1 (Homo sapiens (Human), UniProt Q9BUB5); assay: MNK1 in vitro kinase assay (Assay 3), Z'-LYTE; assay type: biochemical; conditions: for inhibition at 1 µM: compound concentration of 1 μM, read-out: MNK1 % INH
Text: C. MNK1 In vitro Kinase Assay (Assay 3)
MNK1 Data can be obtained from the MNK1 Z′-LYTE® assay. The MNK1 Z′-LYTE® screening protocol and assay conditions are also described on www.invitrogen.com.
The assay is described as follows:
The Z′-LYTE® biochemical assay employs a fluorescence-based, coupled-enzyme format and is based on the differential sensitivity of phosphorylated and non-phosphorylated peptides to proteolytic cleavage. The peptide substrate is labeled with two fluorophores—one at each end—that make up a FRET pair.
In the primary reaction, the kinase transfers the gamma-phosphate of ATP to a single tyrosine, serine or threonine residue in a synthetic FRET-peptide. In the secondary reaction, a site-specific protease recognizes and cleaves non-phosphorylated FRET-peptides. Phosphorylation of FRET-peptides suppresses cleavage by the Development Reagent. Cleavage disrupts FRET between the donor (i.e., coumarin) and acceptor (i.e., fluorescein) fluorophores on the FRET-peptide, whereas uncleaved, phosphorylated FRET-peptides maintain FRET. A ratiometric method, which calculates the ratio (the Emission Ratio) of donor emission to acceptor emission after excitation of the donor fluorophore at 400 nm, is used to quantitate reaction progress, as shown in the equation below.
ASSAY SETUP: The inhibition of kinase activity of MNK1a was assessed using pre-activated GST-MNK1a. The 2×MKNK1 (MNK1) mixture is prepared in 50 mM HEPES pH 7.5, 0.01% BRIJ-35, 10 mM MgCl2, 4 mM MnCl2, 1 mM EGTA, 2 mM DTT.
The Test Compounds are screened in 1% DMSO (final) in the well.
All Peptide/Kinase Mixtures are diluted to a 2× working concentration in the MNK1 Kinase Buffer.
All ATP Solutions are diluted to a 4× working concentration in Kinase Buffer (50 mM HEPES pH 7.5, 0.01% BRIJ-35, 10 mM MgCl2, 1 mM EGTA).
Development Reagent Solution:
The Development Reagent is diluted in Development Buffer
1. 2.5 μL—4× Test Compound
2. 5 μL—2× Peptide/Kinase Mixture
5. 60-minute Kinase Reaction incubation at room temperature
6. 5 μl—Development Reagent Solution
8. 60-minute Development Reaction incubation at room temperature
9. Read on fluorescence plate reader and analyze the data
The following equations are used for each set of data points: […]
Correction for Background Fluorescence: FlSample-FlTCFl Ctl
% Phosphorylation (% Phos): 1−((Emission Ratio×F100%)−C100%)/((C0%−C100%)+[Emission Ratio×(F100%−F0%)])*100%
% Inhibition: 1−(% PhosSample/% Phos0% Inhibition Ctl)*100
Fl=Fluorescence Intensity
C100%=Average Coumarin emission signal of the 100% Phos. Control
C0%=Average Coumarin emission signal of the 0% Phos. Control
F100%=Average Fluorescein emission signal of the 100% Phos. Control
F0%=Average Fluorescein emission signal of the 0% Phos. Control
SelectScreen® Kinase Profiling Service uses XLfit from IDBS.

MNK1, sequence (Q9BUB5 other isoform, or with tags, fused parts or gaps): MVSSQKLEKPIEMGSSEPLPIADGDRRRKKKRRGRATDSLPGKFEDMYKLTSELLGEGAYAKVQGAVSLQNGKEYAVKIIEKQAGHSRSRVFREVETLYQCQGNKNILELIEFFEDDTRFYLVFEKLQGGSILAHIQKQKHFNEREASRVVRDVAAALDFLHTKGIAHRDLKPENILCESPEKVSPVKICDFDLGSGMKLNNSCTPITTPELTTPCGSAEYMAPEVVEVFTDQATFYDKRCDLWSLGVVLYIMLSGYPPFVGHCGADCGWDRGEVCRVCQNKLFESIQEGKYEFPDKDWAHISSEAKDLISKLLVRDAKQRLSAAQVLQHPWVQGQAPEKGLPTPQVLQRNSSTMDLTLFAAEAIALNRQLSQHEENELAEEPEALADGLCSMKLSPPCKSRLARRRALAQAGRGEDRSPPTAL
MNK2a, sequence (Q9HBH9 whole entry): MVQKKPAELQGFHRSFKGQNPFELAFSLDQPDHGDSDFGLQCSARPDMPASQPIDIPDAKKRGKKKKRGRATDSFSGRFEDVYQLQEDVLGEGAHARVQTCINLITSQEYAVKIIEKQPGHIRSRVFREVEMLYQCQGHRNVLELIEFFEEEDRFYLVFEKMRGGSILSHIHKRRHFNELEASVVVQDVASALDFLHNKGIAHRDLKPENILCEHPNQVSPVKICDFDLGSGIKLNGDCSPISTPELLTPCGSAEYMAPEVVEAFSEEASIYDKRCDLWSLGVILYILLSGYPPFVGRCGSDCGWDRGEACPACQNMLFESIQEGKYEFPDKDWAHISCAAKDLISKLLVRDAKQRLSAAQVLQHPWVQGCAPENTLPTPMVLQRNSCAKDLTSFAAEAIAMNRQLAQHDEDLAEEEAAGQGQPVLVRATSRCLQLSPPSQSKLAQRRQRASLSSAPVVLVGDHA

Structure (SMILES) | pIC50 (MNK2a) | pIC50 (MNK1) | inhibition at 1 µM (MNK1)
CCNC(=O)N1CCS(=O)(=Nc2cc(C)c3c(Nc4ccc(F)cc4O[C@H](C)c4cc(C)no4)ncnc3c2)CC1 [Example 5.008] | 8.70 | 7.41 | –
Cc1cc(N=S(C)(C)=O)cc2ncnc(Nc3ccc(F)cc3O[C@H](C)C(=O)N(C)Cc3ccccc3)c12 [Example 4.012] | 7.47 | – | 56%
C[C@H](NC(=O)[C@@H](C)Oc1cc(F)ccc1Nc1ncnc2cc(N=S3(=O)CCC3)cc(F)c12)C(F)(F)F [Example 4.136] | 9.00 | 7.54 | 93%
Cc1cc([C@@H](C)Oc2ncccc2Nc2ncnc3cc(N=S(C)(C)=O)cc(Cl)c23)on1 [Example 1.016] | 9.00 | 7.28 | –
C[C@@H](Oc1cc(F)ccc1Nc1ncnc2cc(N=S3(=O)CCCC3)cc(F)c12)C(=O)NCC(F)(F)F [Example 3.047] | 9.00 | – | 96%
CS(C)(=O)=Nc1cc(C2CC2)c2c(Nc3ccc(F)cc3OC(CF)CF)ncnc2c1 [Example 1.022] | 8.52 | – | 79%
Cc1cc([C@@H](C)Oc2cc(F)ccc2Nc2ncnc3cc(N=S(C)(C)=O)cc(C)c23)on1 [Example 2.008] | 9.00 | 7.60 | –
Cc1cc(N=S(C)(C)=O)cc2ncnc(Nc3ccc(F)cc3OC[C@H]3CCC(=O)N3)c12 [Example 3.038] | 8.70 | – | 86%
Cc1cc(N=S2(=O)CCCC2)cc2ncnc(Nc3ccc(F)cc3O[C@H](C)C(N)=O)c12 [Example 4.047] | 8.30 | – | 86%
COc1cc(N=S(C)(C)=O)cc2ncnc(Nc3ccc(F)cc3OC(C)c3cc(C)no3)c12 (centres unmarked) [Example 7.003] | 8.70 | – | 102%
C[C@@H](Oc1cc(F)ccc1Nc1ncnc2cc(N=S(C)(C)=O)cc(F)c12)C(=O)NCC(F)(F)F [Example 3.049] | 8.70 | 7.17 | –
Cc1cc(N=S2(=O)CCCC2)cc2ncnc(Nc3ccc(F)cc3O[C@H](C)C(=O)NCC(F)(F)F)c12 [Example 4.074] | 9.00 | 7.42 | –
Cc1cc(N=S(C)(C)=O)cc2ncnc(Nc3ccc(F)cc3OC(C)c3cccnc3)c12 (centres unmarked) [Example 3.007] | 8.05 | – | 96%
Cc1cc(N=S(C)(C)=O)cc2ncnc(Nc3ccc(F)cc3OCC3CCO3)c12 (centres unmarked) [Example 3.013] | 8.10 | – | 88%
COC1CCN(C(=O)[C@@H](C)Oc2cc(F)ccc2Nc2ncnc3cc(N=S4(=O)CCCC4)cc(C)c23)CC1 [Example 4.059] | 8.40 | – | 90%
Cc1cc(N=S(C)(C)=O)cc2ncnc(Nc3ccc(F)cc3OC(C)c3ncco3)c12 (centres unmarked) [Example 3.002] | 8.10 | – | 80%
Cc1cc(N=S2(=O)CCCC2)cc2ncnc(Nc3ccc(F)cc3O[C@H](C)C(=O)N(C)CC(C)C)c12 [Example 4.052] | 8.52 | – | 94%
Cc1cc(N=S(C)(C)=O)cc2ncnc(Nc3ccc(F)cc3O[C@H](C)C(=O)N(C)CC(C)C)c12 [Example 4.013] | 8.30 | – | 88%
C#CC(C)Oc1cc(F)ccc1Nc1ncnc2cc(N=S(C)(C)=O)cc(C)c12 (centres unmarked) [Example 3.016] | 8.70 | – | 90%
Cc1cc(N=S(C)(C)=O)cc2ncnc(Nc3ccc(F)cc3O[C@H](C)C(=O)NCC3CCCO3)c12 (some centres unmarked) [Example 4.011] | 7.62 | – | 86%
Cc1cc(N=S2(=O)CCCC2)cc2ncnc(Nc3ccc(F)cc3O[C@H](C)C(=O)N(C)CCc3ccccc3)c12 [Example 4.063] | 8.00 | – | 56%
Cc1cc(N=S(C)(C)=O)cc2ncnc(Nc3ccc(F)cc3OCC(=O)N(C)C)c12 [Example 3.026] | 8.40 | – | 53%
Cc1cc(N=S2(=O)CCCC2)cc2ncnc(Nc3ccc(F)cc3O[C@H](C)C(=O)NC(C)C)c12 [Example 4.042] | 9.00 | – | 97%
Cc1cc(N=S(C)(C)=O)cc2ncnc(Nc3ccc(F)cc3O[C@H](C)CNS(=O)(=O)C(F)(F)F)c12 [Example 5.011] | 7.00 | – | 27%

Structure (SMILES) | pIC50 (MNK2a) | pIC50 (MNK1) | inhibition at 1 µM (MNK1)
Cc1cc([C@@H](C)Oc2ncccc2Nc2ncnc3cc(N=S4(=O)CCCC4)cc(C)c23)on1 [Example 2.009] | 9.00 | 7.31 | –
COCC(C)NC(=O)[C@@H](C)Oc1cc(F)ccc1Nc1ncnc2cc(N=S3(=O)CCCC3)cc(C)c12 (some centres unmarked) [Example 4.040] | 8.70 | – | 97%
Cc1cc(N=S(C)(C)=O)cc2ncnc(Nc3ccc(F)cc3O[C@H](C)CNC(=O)C(F)(F)F)c12 [Example 5.010] | 7.55 | – | 62%
C[C@@H](Oc1cc(F)ccc1Nc1ncnc2cc(N=S(C)(C)=O)cc(Cl)c12)C(F)(F)F [Example 1.003] | 9.00 | – | 95%
Cc1cc(N=S2(=O)CCC2)cc2ncnc(Nc3ccc(F)cc3O[C@H](C)C(=O)N[C@@H](C)C(F)(F)F)c12 [Example 4.104] | 9.00 | – | 100%
CCC(=O)NC[C@@H](C)Oc1cc(F)ccc1Nc1ncnc2cc(N=S(C)(C)=O)cc(C)c12 [Example 5.012] | 7.25 | – | 61%
CC#CCNC(=O)[C@@H](C)Oc1cc(F)ccc1Nc1ncnc2cc(N=S3(=O)CCCC3)cc(C)c12 [Example 4.044] | 8.52 | – | 96%
C#CCNC(=O)[C@@H](C)Oc1cc(F)ccc1Nc1ncnc2cc(N=S(C)(C)=O)cc(C)c12 [Example 4.018] | 8.40 | – | 99%
Cc1cc(N=S(C)(C)=O)cc2ncnc(Nc3ccc(F)cc3O[C@H](C)CN)c12 [Example 3.018] | 9.00 | – | 92%
Cc1cc([C@@H](C)Oc2cc(F)ccc2Nc2ncnc3cc(N=S4(=O)CCCC4)cc(C)c23)on1 [Example 2.012] | 7.55 | – | 102%
Cc1cc(N=S(C)(C)=O)cc2ncnc(Nc3ccc(F)cc3O[C@@H](C)CNS(C)(=O)=O)c12 [Example 5.001] | 9.00 | – | 97%
Cc1cc(N=S(C)(C)=O)cc2ncnc(Nc3ccc(F)cc3OCC3(C(F)(F)F)CC3)c12 [Example 3.027] | 8.70 | – | 98%
CC(=O)NC[C@@H](C)Oc1cc(F)ccc1Nc1ncnc2cc(N=S(C)(C)=O)cc(C)c12 [Example 5.009] | 7.46 | – | 74%
CC(=O)N1CCS(=O)(=Nc2cc(C)c3c(Nc4ccc(F)cc4O[C@H](C)c4cc(C)no4)ncnc3c2)CC1 [Example 5.005] | 8.70 | – | 95%
Cc1cc(N=S(C)(C)=O)cc2ncnc(Nc3ccc(F)cc3OCC3COCCO3)c12 (centres unmarked) [Example 3.044] | 7.20 | – | 49%
Cc1cc(N=S2(=O)CCCC2)cc2ncnc(Nc3ccc(F)cc3O[C@H](C)C(=O)N(C)CCO)c12 [Example 4.028] | 8.40 | – | 86%
Cc1cc(N=S(C)(C)=O)cc2ncnc(Nc3ccc(F)cc3O[C@H](C)C(=O)N[C@@H]3CCC[C@H]3O)c12 [Example 4.065] | 8.05 | – | 93%
CCOC(Oc1cc(F)ccc1Nc1ncnc2cc(N=S(C)(C)=O)cc(C)c12)C(F)(F)F (centres unmarked) [Example 1.023] | 8.10 | – | 65%
Cc1cc(N=S(C)(C)=O)cc2ncnc(Nc3ccc(F)cc3OCC3CCCCO3)c12 (centres unmarked) [Example 3.006] | 9.00 | – | 70%
Cc1cc(N=S(C)(C)=O)cc2ncnc(Nc3ccc(F)cc3O[C@H](C)C(=O)N[C@@H]3CCC[C@@H]3O)c12 [Example 4.038] | 7.57 | – | 78%
Cc1cc([C@@H](C)Oc2ncccc2Nc2ncnc3cc(N=S(C)(C)=O)cc(C)c23)on1 [Example 2.018] | 9.00 | 7.47 | –
Cc1cc(N=S(C)(C)=O)cc2ncnc(Nc3ccc(F)cc3OC(C)Cn3ccnc3C)c12 (centres unmarked) [Example 3.015] | 8.52 | – | 45%
Cc1cc(N=S(C)(C)=O)cc2ncnc(Nc3ccc(F)cc3O[C@H](C)C(=O)NC(C)C)c12 [Example 4.060] | 8.70 | – | 99%
